Test results taken from US11542235B2, “Herbicidal 3-azaspiro[5.5] undecane-8, 10-dione compounds” (SYNGENTA PARTICIPATIONS AG, priority 2018, dated 2023).

test system: Lolium perenne (LOLPE); assay: Glasshouse herbicidal test, pre- and post-emergence, Lolium perenne; format: in vivo; conditions: post-emergence, 250 g/h, evaluated after 13 days, five point scale
Method: (§1) Seeds of a variety of test species are sown in standard soil in pots (Lolium perenne (LOLPE), Setaria faberi (SETFA), Alopecurus myosuroides (ALOMY), Echinochloa crus-galli (ECHCG), Avena fatua (AVEFA)). After cultivation for one day (pre-emergence) or after 8 days cultivation (post-emergence) under controlled conditions in a glasshouse (at 24/16° C., day/night; 14 hours light; 65% humidity), the plants are sprayed with an aqueous spray solution derived from the formulation of the technical active ingredient in acetone/water (50:50) solution containing 0.5% Tween 20 (polyoxyethelyene sorbitan monolaurate, CAS RN 9005-64-5). Compounds are applied at […]. The test plants are then grown in a glasshouse under controlled conditions in a glasshouse (at 24/16° C., day/night; 14 hours light; 65% humidity) and watered twice daily. After 13 days for pre and post-emergence, the test is evaluated for the percentage damage caused to the plant. The biological activities are shown in the following table on a five point scale (5=80-100%; 4=60-79%; 3=40-59%; 2=20-39%; 1=0-19%).

| Structure (SMILES) | percentage damage caused to the plant, LOLPE POST |
| --- | --- |
| CC#Cc1cc(C)c(C2C(=O)CC3(CCN(C(=O)C(C)C(F)(F)F)CC3)CC2=O)c(C)c1 (stereo not drawn) [Compound A24] | 5 (5=80-100%) |
| CC#Cc1cc(C)c(C2C(=O)CC3(CCN(C(=O)CC(F)(F)F)CC3)CC2=O)c(C)c1 [Compound A25] | 5 (5=80-100%) |
| CC#Cc1cc(C)c(C2C(=O)CC3(CCN(C(=O)C(F)(F)C(F)(F)F)CC3)CC2=O)c(C)c1 [Compound A26] | 5 (5=80-100%) |

same assay, conditions: pre-emergence, 250 g/h, evaluated after 13 days, five point scale

| Structure (SMILES) | percentage damage caused to the plant, LOLPE PRE |
| --- | --- |
| CC#Cc1cc(C)c(C2C(=O)CC3(CCN(C(=O)C(C)C(F)(F)F)CC3)CC2=O)c(C)c1 (stereo not drawn) [Compound A24] | 5 (5=80-100%) |
| CC#Cc1cc(C)c(C2C(=O)CC3(CCN(C(=O)CC(F)(F)F)CC3)CC2=O)c(C)c1 [Compound A25] | 5 (5=80-100%) |
| CC#Cc1cc(C)c(C2C(=O)CC3(CCN(C(=O)C(F)(F)C(F)(F)F)CC3)CC2=O)c(C)c1 [Compound A26] | 5 (5=80-100%) |

test system: Setaria faberi (SETFA); assay: Glasshouse herbicidal test, pre- and post-emergence, Setaria faberi; format: in vivo; conditions: post-emergence, 250 g/h, evaluated after 13 days, five point scale
Method: as §1

| Structure (SMILES) | percentage damage caused to the plant, SETFA POST |
| --- | --- |
| CC#Cc1cc(C)c(C2C(=O)CC3(CCN(C(=O)C(C)C(F)(F)F)CC3)CC2=O)c(C)c1 (stereo not drawn) [Compound A24] | 5 (5=80-100%) |
| CC#Cc1cc(C)c(C2C(=O)CC3(CCN(C(=O)CC(F)(F)F)CC3)CC2=O)c(C)c1 [Compound A25] | 5 (5=80-100%) |
| CC#Cc1cc(C)c(C2C(=O)CC3(CCN(C(=O)C(F)(F)C(F)(F)F)CC3)CC2=O)c(C)c1 [Compound A26] | 5 (5=80-100%) |

same assay, conditions: pre-emergence, 250 g/h, evaluated after 13 days, five point scale

| Structure (SMILES) | percentage damage caused to the plant, SETFA PRE |
| --- | --- |
| CC#Cc1cc(C)c(C2C(=O)CC3(CCN(C(=O)C(C)C(F)(F)F)CC3)CC2=O)c(C)c1 (stereo not drawn) [Compound A24] | 5 (5=80-100%) |
| CC#Cc1cc(C)c(C2C(=O)CC3(CCN(C(=O)CC(F)(F)F)CC3)CC2=O)c(C)c1 [Compound A25] | 5 (5=80-100%) |
| CC#Cc1cc(C)c(C2C(=O)CC3(CCN(C(=O)C(F)(F)C(F)(F)F)CC3)CC2=O)c(C)c1 [Compound A26] | 5 (5=80-100%) |

test system: Alopecurus myosuroides (ALOMY); assay: Glasshouse herbicidal test, pre- and post-emergence, Alopecurus myosuroides; format: in vivo; conditions: post-emergence, 250 g/h, evaluated after 13 days, five point scale
Method: as §1

| Structure (SMILES) | percentage damage caused to the plant, ALOMY POST |
| --- | --- |
| CC#Cc1cc(C)c(C2C(=O)CC3(CCN(C(=O)C(C)C(F)(F)F)CC3)CC2=O)c(C)c1 (stereo not drawn) [Compound A24] | 5 (5=80-100%) |
| CC#Cc1cc(C)c(C2C(=O)CC3(CCN(C(=O)CC(F)(F)F)CC3)CC2=O)c(C)c1 [Compound A25] | 5 (5=80-100%) |
| CC#Cc1cc(C)c(C2C(=O)CC3(CCN(C(=O)C(F)(F)C(F)(F)F)CC3)CC2=O)c(C)c1 [Compound A26] | 5 (5=80-100%) |

same assay, conditions: pre-emergence, 250 g/h, evaluated after 13 days, five point scale

| Structure (SMILES) | percentage damage caused to the plant, ALOMY PRE |
| --- | --- |
| CC#Cc1cc(C)c(C2C(=O)CC3(CCN(C(=O)C(C)C(F)(F)F)CC3)CC2=O)c(C)c1 (stereo not drawn) [Compound A24] | 5 (5=80-100%) |
| CC#Cc1cc(C)c(C2C(=O)CC3(CCN(C(=O)CC(F)(F)F)CC3)CC2=O)c(C)c1 [Compound A25] | 5 (5=80-100%) |
| CC#Cc1cc(C)c(C2C(=O)CC3(CCN(C(=O)C(F)(F)C(F)(F)F)CC3)CC2=O)c(C)c1 [Compound A26] | 5 (5=80-100%) |

test system: Echinochloa crus-galli (ECHCG); assay: Glasshouse herbicidal test, pre- and post-emergence, Echinochloa crus-galli; format: in vivo; conditions: post-emergence, 250 g/h, evaluated after 13 days, five point scale
Method: as §1

| Structure (SMILES) | percentage damage caused to the plant, ECHCG POST |
| --- | --- |
| CC#Cc1cc(C)c(C2C(=O)CC3(CCN(C(=O)C(C)C(F)(F)F)CC3)CC2=O)c(C)c1 (stereo not drawn) [Compound A24] | 5 (5=80-100%) |
| CC#Cc1cc(C)c(C2C(=O)CC3(CCN(C(=O)CC(F)(F)F)CC3)CC2=O)c(C)c1 [Compound A25] | 5 (5=80-100%) |
| CC#Cc1cc(C)c(C2C(=O)CC3(CCN(C(=O)C(F)(F)C(F)(F)F)CC3)CC2=O)c(C)c1 [Compound A26] | 5 (5=80-100%) |

same assay, conditions: pre-emergence, 250 g/h, evaluated after 13 days, five point scale

| Structure (SMILES) | percentage damage caused to the plant, ECHCG PRE |
| --- | --- |
| CC#Cc1cc(C)c(C2C(=O)CC3(CCN(C(=O)C(C)C(F)(F)F)CC3)CC2=O)c(C)c1 (stereo not drawn) [Compound A24] | 5 (5=80-100%) |
| CC#Cc1cc(C)c(C2C(=O)CC3(CCN(C(=O)CC(F)(F)F)CC3)CC2=O)c(C)c1 [Compound A25] | 5 (5=80-100%) |
| CC#Cc1cc(C)c(C2C(=O)CC3(CCN(C(=O)C(F)(F)C(F)(F)F)CC3)CC2=O)c(C)c1 [Compound A26] | 5 (5=80-100%) |

test system: Avena fatua (AVEFA); assay: Glasshouse herbicidal test, pre- and post-emergence, Avena fatua; format: in vivo; conditions: post-emergence, 250 g/h, evaluated after 13 days, five point scale
Method: as §1

| Structure (SMILES) | percentage damage caused to the plant, AVEFA POST |
| --- | --- |
| CC#Cc1cc(C)c(C2C(=O)CC3(CCN(C(=O)C(C)C(F)(F)F)CC3)CC2=O)c(C)c1 (stereo not drawn) [Compound A24] | 5 (5=80-100%) |
| CC#Cc1cc(C)c(C2C(=O)CC3(CCN(C(=O)CC(F)(F)F)CC3)CC2=O)c(C)c1 [Compound A25] | 5 (5=80-100%) |
| CC#Cc1cc(C)c(C2C(=O)CC3(CCN(C(=O)C(F)(F)C(F)(F)F)CC3)CC2=O)c(C)c1 [Compound A26] | 5 (5=80-100%) |

same assay, conditions: pre-emergence, 250 g/h, evaluated after 13 days, five point scale

| Structure (SMILES) | percentage damage caused to the plant, AVEFA PRE |
| --- | --- |
| CC#Cc1cc(C)c(C2C(=O)CC3(CCN(C(=O)C(C)C(F)(F)F)CC3)CC2=O)c(C)c1 (stereo not drawn) [Compound A24] | 5 (5=80-100%) |
| CC#Cc1cc(C)c(C2C(=O)CC3(CCN(C(=O)CC(F)(F)F)CC3)CC2=O)c(C)c1 [Compound A25] | 5 (5=80-100%) |
| CC#Cc1cc(C)c(C2C(=O)CC3(CCN(C(=O)C(F)(F)C(F)(F)F)CC3)CC2=O)c(C)c1 [Compound A26] | 5 (5=80-100%) |
